The values that follow come from publication PMC11019538, “Biophysics-Guided Lead Discovery of HBV Capsid Assembly Modifiers” (ACS Infectious Diseases, 2024).

Like-named read-outs stand apart in the source and are kept apart here.

The test system of data set [1] is HBV DNA replication in HepAD38 cells. In words: HBV DNA replication inhibition assay in HepAD38 cells (7 days, PCR of supernatant DNA). The note with it: HepAD38 cells; for HBV DNA inhibition (%) at 10 µM: first round of selected compounds. It is filed as cell-based, hepatitis B virus. As to the method:
HepAD38 cells were seeded at 50,000 cells/well in collagen-coated 96-well plates. […] The experiment lasted 7 days. On day 7, total DNA was purified from the supernatant using a commercially available kit (DNeasy 96 Blood & Tissue kit, Qiagen). The HBV DNA was amplified in a polymerase chain reaction assay using LightCycler 480 II (Roche), as previously described.[63] All samples were tested in duplicate.

Data set [2] deals with human peripheral blood mononuclear (PBM) cells. Put plainly: MTT cytotoxicity, PBM cells. It is filed as cell-based. As to the method: (§1) Human peripheral blood mononuclear (PBM), T lymphoblast CEM-CCRF (herein referred to as CEM cells), African green monkey kidney (Vero), or human liver carcinoma (HepG2) cells were tested via MTT assay using the CellTiter 96 Non-Radioactive Cell Proliferation (Promega) kit as previously described.[63]

For data set [3], the system named is T lymphoblast CEM-CCRF (CEM) cells. In words: MTT cytotoxicity, CEM cells. It is filed as cell-based, human. As to the method:
as §1

Data set [4] deals with African green monkey kidney (Vero) cells. Put plainly: MTT cytotoxicity, Vero cells. It is filed as cell-based. The settings on record: Vero cells. Here is the method: as §1
For data set [5], the system named is human liver carcinoma (HepG2) cells. In words: MTT cytotoxicity, HepG2 cells. Format: cell-based. The note with it: HepG2 cells. As to the method: as §1

As for `NCc1ccc(N2CCC(CO)CC2)cc1` [GT-17], the “HBV DNA inhibition (%) at 10 µM” value in data set [1] is on record as less than 1%. Moreover, the 50% cytotoxic concentration (CC50) in data set [2], in data set [3], in data set [4] and in data set [5] was more than 100 µM each time.

As for `CC(NC(=O)c1cccnc1)c1ccccc1` (stereo not shown) [GT-18], the “HBV DNA inhibition (%) at 10 µM” value in data set [1] is recorded as less than 1%. Further, the CC50 in data set [2], in data set [3], in data set [4] and in data set [5] was more than 100 µM throughout.

`NCc1ccc(-c2ccccc2F)o1` [GT-19]: the “HBV DNA inhibition (%) at 10 µM” value in data set [1] is less than 1%. The cytotoxic concentration (CC50) in data set [2], in data set [3], in data set [4] and in data set [5] was more than 100 µM in each case.

`Cc1ccc(C(N)c2ccncc2)cc1` (stereo not shown) [GT-20]: in data set [1], the “HBV DNA inhibition (%) at 10 µM” value is less than 1%. Further, the half-maximal cytotoxic concentration (CC50) in data set [2], in data set [3], in data set [4] and in data set [5] was more than 100 µM in each case.

For `NCc1cccc(Oc2ccccc2)c1` [GT-21], the “HBV DNA inhibition (%) at 10 µM” value in data set [1] is on record as less than 1%. Further, the CC50 in data set [2] is more than 100 µM; in data set [3], 18.2 µM; in data set [4], 49.6 µM; in data set [5], more than 100 µM.

Turning to `NCc1ccc(F)c(COC2CCCC2)c1` [GT-22], the “HBV DNA inhibition (%) at 10 µM” value in data set [1] is less than 1%. The CC50 is more than 100 µM in data set [2], 36.3 µM in data set [3], 88.6 µM in data set [4] and more than 100 µM in data set [5].

As for `O=C(NCc1cccnc1)C1CCNCC1` [GT-23], the “HBV DNA inhibition (%) at 10 µM” value in data set [1] is less than 1%. Besides, the cytotoxic concentration (CC50) in data set [2], in data set [3], in data set [4] and in data set [5] was more than 100 µM in each case.

Take `NCc1cccc(-c2ccccn2)c1` [GT-24]: the “HBV DNA inhibition (%) at 10 µM” value in data set [1] is given as less than 1%. For the same compound, the CC50 in data set [2] was more than 100 µM; in data set [3], 11.3 µM; in data set [4], more than 100 µM; in data set [5], more than 100 µM.

Take `CC(NC(=O)c1ccccc1)c1ccccn1` (stereo not shown) [GT-25]: the “HBV DNA inhibition (%) at 10 µM” value in data set [1] is reported as less than 1%. For the same compound, the half-maximal cytotoxic concentration (CC50) in data set [2], in data set [3], in data set [4] and in data set [5] was more than 100 µM throughout.

For `O=C(NCCn1ccnc1)c1ccccn1` [GT-26], the “HBV DNA inhibition (%) at 10 µM” value in data set [1] is on record as less than 1%. Moreover, the half-maximal cytotoxic concentration (CC50) in data set [2], in data set [3], in data set [4] and in data set [5] was more than 100 µM in each case.

Regarding `Cc1cc(-c2ccccc2)nc(C#N)c1C#N` [GT-27], in data set [1], the “HBV DNA inhibition (%) at 10 µM” value is less than 1%. In addition, the CC50 was 14.7 µM in data set [2], 4 µM in data set [3], 27.3 µM in data set [4] and 41.7 µM in data set [5].

Consider `CNc1cc(C#N)nc(-c2ccccc2)n1` [GT-28], for which the “HBV DNA inhibition (%) at 10 µM” value in data set [1] is recorded as less than 1%. The 50% cytotoxic concentration (CC50) in data set [2] is 24 µM; in data set [3] it was 63.8 µM; in data set [4] it was more than 100 µM; in data set [5], more than 100 µM.

As for `CC(N)c1ccc(-c2ccc(F)cc2)cc1` (stereo not shown) [GT-29], the “HBV DNA inhibition (%) at 10 µM” value in data set [1] is listed as less than 1%. Further, the CC50 stood at 25 µM in data set [2], 35.7 µM in data set [3], 21 µM in data set [4] and 12.3 µM in data set [5].

On to `CCN1CCN(C(=O)c2ccc(-c3nc4ccccc4nc3-c3ccccc3)cc2)CC1` [GT-30], for which the “% HBV DNA Inh. at 10 μM, trial 1” value in data set [1] (10 μM, trial 1) is recorded as less than 1%. Moreover, the “% HBV DNA Inh. at 10 μM, trial 2” value in data set [1] (10 μM, trial 2) is less than 1%. Moreover, the 50% effective concentration (EC50) in data set [1] (trial 1, read-out: EC50, trial 1) was more than 10 µM; in data set [1] (trial 2, read-out: EC50, trial 2), more than 10 µM. For the same compound, the CC50 in data set [2] came out at 60 µM; in data set [3] it was 32 µM; in data set [4], 81 µM; in data set [5], 34 µM.

What is called CC50 is the concentration that lowers cell viability or growth by half. A word on the EC50: it is the concentration giving half of the maximal effect.
